Assay results as given in ChEMBL document CHEMBL3414533, “Thiophene containing trisubstituted methanes [TRSMs] as identified lead against Mycobacterium tuberculosis” (Eur J Med Chem, 2015).
≈ marks a conversion by molar mass, not a printed value. Calls of active or inactive are those of the source. No cut-off for these calls is given here.

Key:
[1] = Cytotoxicity against African green monkey Vero C1008 cells assessed as reduction in cell viability after 24 hrs by MTS assay; format: cell-based; details: Chlorocebus sabaeus
[2] = Selectivity index, ratio of IC50 for African green monkey Vero C1008 cells to MIC for Mycobacterium tuberculosis H37Rv; format: toxicity, cell-based; details: read-out: Selectivity Index
[3] = test system: Mycobacterium tuberculosis; assay: Antimycobacterial activity against Mycobacterium tuberculosis H37Rv incubated at 37 degC for 4 weeks; format: functional; details: 672 h
[4] = test system: Mycobacterium tuberculosis; assay: Antimycobacterial activity against Mycobacterium tuberculosis H37Rv infected in Swiss mouse assessed as lung bacterial colony forming units at 10 mg/kg, po dosed daily for 28 days measured up to day 40 (reference value: 31 10^7 CFU); format: functional
[5] = test system: Mycobacterium tuberculosis; assay: Antimycobacterial activity against Mycobacterium tuberculosis H37Rv infected in mouse bone-marrow derived macrophages assessed as reduction in intracellular colony forming units at 4 times antimycobacterial MIC measured during 3 hrs infection period; format: functional
[6] = test system: Mycobacterium tuberculosis; assay: Antimycobacterial activity against Mycobacterium tuberculosis H37Rv infected in Swiss mouse assessed as mouse survival level at 100 mg/kg, po dosed daily for 28 days measured up to day 40; format: functional
[7] = test system: Mycobacterium tuberculosis; assay: Antimycobacterial activity against Mycobacterium tuberculosis H37Rv infected in mouse bone-marrow derived macrophages assessed as reduction in intracellular colony forming units at 4 times antimycobacterial MIC measured during 3 hrs infection period relative to control; format: functional
[8] = test system: Mycobacterium tuberculosis; assay: Antimycobacterial activity against Mycobacterium tuberculosis H37Rv infected in human blood monocyte derived macrophages assessed as reduction in intracellular colony forming units at 4 times antimycobacterial MIC measured during 3 hrs infection period relative to control; format: functional
[9] = test system: Mycobacterium tuberculosis; assay: Antimycobacterial activity against Mycobacterium tuberculosis H37Rv infected in human blood monocyte derived macrophages assessed as reduction in intracellular colony forming units at 4 times antimycobacterial MIC measured during 3 hrs infection period; format: functional, organism-based
[10] = Mean residence time in rat by HPLC and LC-MS/MS method; format: ADME, organism-based; details: in vivo
[11] = Protein binding in rat plasma by HPLC and LC-MS/MS method; format: ADME, cell-free; details: read-out: PPB (converted)
[12] = test system: Mycobacterium tuberculosis; assay: Bactericidal activity against Mycobacterium tuberculosis H37Rv assessed as microbial killing at 1 times and 4 times MIC level measured on day 14; format: functional
[13] = Elimination half life in rat by HPLC and LC-MS/MS method; format: ADME, organism-based; details: in vivo, read-out: beta t1/2 (converted)
[14] = test system: Mycobacterium tuberculosis; assay: Antimycobacterial activity against Mycobacterium tuberculosis H37Rv infected in Swiss mouse assessed as median survival time at 100 mg/kg, po dosed daily for 28 days measured up to day 40; format: functional
[15] = test system: Mycobacterium tuberculosis; assay: Antimycobacterial activity against Mycobacterium tuberculosis H37Rv infected in Swiss mouse assessed as reduction in lung bacterial colony forming units at 100 mg/kg, po dosed daily for 28 days measured up to day 40; format: functional
[16] = test system: Mycobacterium tuberculosis; assay: Antimycobacterial activity against Mycobacterium tuberculosis H37Rv infected in Swiss mouse assessed as reduction in lung bacterial lesions at 100 mg/kg, po dosed daily for 28 days measured up to day 40 by Ziehl-Neelsen staining method; format: functional, organism-based; parameters: dose 100 mg/kg
[17] = test system: Mycobacterium tuberculosis; assay: Antimycobacterial activity against Mycobacterium tuberculosis H37Rv infected in Swiss mouse assessed as lung bacterial colony forming units at 100 mg/kg, po dosed daily for 28 days measured up to day 40 (reference value: 31 10^7 CFU); format: functional
[18] = test system: Mycobacterium tuberculosis; assay: Bactericidal activity against Mycobacterium tuberculosis H37Rv assessed as microbial killing by measuring colony forming units at 1 times and 4 times MIC level measured on day 14 (reference value: 1680 CFU); format: functional
[19] = Bioavailability in rat by HPLC and LC-MS/MS method; format: ADME, organism-based; details: in vivo
[20] = test system: Mycobacterium tuberculosis; assay: Bactericidal activity against Mycobacterium tuberculosis H37Rv infected in Swiss mouse assessed as microbial killing by measuring colony forming units at 100 mg/kg, po dosed daily for 28 days (reference value: 4800 CFU); format: functional
[21] = test system: Mycobacterium tuberculosis; assay: Antimycobacterial activity against drug-sensitive Mycobacterium tuberculosis H37Rv by agar dilution method; format: functional
[22] = test system: Mycobacterium tuberculosis; assay: Bactericidal activity against Mycobacterium tuberculosis H37Rv infected in Swiss mouse assessed as microbial killing at 100 mg/kg, po dosed daily for 28 days; format: functional; details: 672 h
[23] = test system: Mycobacterium tuberculosis; assay: Antimycobacterial activity against Mycobacterium tuberculosis H37Rv infected in Swiss mouse assessed as lung bacterial colony forming units at 150 mg/kg, po dosed daily for 28 days measured up to day 40 (reference value: 31 10^7 CFU); format: functional
[24] = test system: Mycobacterium tuberculosis; assay: Bactericidal activity against Mycobacterium tuberculosis H37Rv infected in Swiss mouse assessed as microbial killing by measuring colony forming units dosed orally daily for 28 days (reference value: 4800 CFU); format: functional

| Structure (SMILES) | IC50 [1] | selectivity ratio [2] | MIC [3] | also measured |
| --- | --- | --- | --- | --- |
| CN(C)CCOc1ccc(C(c2cccc(Cl)c2)c2cccs2)cc1 (stereo not drawn) | 10.8 µg/mL (≈ 29 µM) | < 10 | 4.65 µg/mL (≈ 12.5 µM) | – |
| CCN(CC)CCOc1ccc(C(c2cccs2)c2ccccc2SC)cc1 (stereo not drawn) | – | – | 25 µg/mL (≈ 60.7 µM) | – |
| Fc1cccc(C(c2ccc(OCCN3CCCCC3)cc2)c2cccs2)c1 (stereo not drawn) | – | – | 19.8 µg/mL (≈ 50.1 µM) | – |
| Fc1ccccc1C(c1ccc(OCCN2CCCC2)cc1)c1cccs1 (stereo not drawn) | – | – | 19.1 µg/mL (≈ 50.1 µM) | – |
| Clc1cccc(C(c2ccc(OCCN3CCCC3)cc2)c2cccs2)c1 (stereo not drawn) | 8.6 µg/mL (≈ 21.6 µM) | < 10 | 2.49 µg/mL (≈ 6.26 µM) | – |
| CC[C@@H](CO)NCCN[C@@H](CC)CO [ETHAMBUTOL] | – | – | – | Activity [4]: 1.27 ×10⁷ CFU |
| COc1ccccc1C(c1ccc(OCCN2CCCCCC2)cc1)c1cccs1 (stereo not drawn) | 12.7 µg/mL (≈ 30.1 µM) | < 10 | 2.64 µg/mL (≈ 6.26 µM) | – |
| CCN(CC)CCOc1ccc(C(c2cccs2)c2ccccc2OC)cc1 (stereo not drawn) | – | – | 25 µg/mL (≈ 63.2 µM) | – |
| Clc1ccc(C(c2ccc(OCCN3CCCCC3)cc2)c2cccs2)cc1 (stereo not drawn) | 100 µg/mL (≈ 243 µM) | > 10 | 0.78 µg/mL (≈ 1.89 µM) | inhibition (percent reduction in intracellular colony forming units) [5]: >90%; Activity [6]: inactive |
| Clc1cccc(C(c2ccc(OCCN3CCOCC3)cc2)c2cccs2)c1 (stereo not drawn) | 23.4 µg/mL (≈ 56.5 µM) | < 10 | 5.18 µg/mL (≈ 12.5 µM) | – |
| COc1ccccc1C(c1ccc(OCCN(C(C)C)C(C)C)cc1)c1cccs1 (stereo not drawn) | – | – | 25 µg/mL (≈ 59 µM) | – |
| CSc1ccccc1C(c1ccc(OCCN(C)C)cc1)c1cccs1 (stereo not drawn) | – | – | 12.5 µg/mL (≈ 32.6 µM) | – |
| CC(C)N(CCOc1ccc(C(c2ccc(Cl)cc2)c2cccs2)cc1)C(C)C (stereo not drawn) | 100 µg/mL (≈ 234 µM) | > 10 | 1.56 µg/mL (≈ 3.64 µM) | inhibition (INH) [7]: 94%; inhibition (percent reduction in intracellular colony forming units) [5]: >90%; Activity [6]: Active; inhibition (INH) [8]: 88% |
| CC(C)N(CCOc1ccc(C(c2cccc(Cl)c2)c2cccs2)cc1)C(C)C (stereo not drawn) | 22 µg/mL (≈ 51.4 µM) | > 10 | 1.34 µg/mL (≈ 3.13 µM) | – |
| CCN(CC)CCOc1ccc(C(c2cccc(Cl)c2)c2cccs2)cc1 (stereo not drawn) | 10.1 µg/mL (≈ 25.3 µM) | < 10 | 1.25 µg/mL (≈ 3.13 µM) | – |
| COc1ccccc1C(c1ccc(OCCN(C)C)cc1)c1cccs1 (stereo not drawn) | – | – | 9.19 µg/mL (≈ 25 µM) | – |
| CCN(CC)CCOc1ccc(C(c2ccccc2)c2cccs2)cc1 (stereo not drawn) | – | – | 12.5 µg/mL (≈ 34.1 µM) | – |
| CSc1ccc(C(c2ccc(OCCN(C(C)C)C(C)C)cc2)c2cccs2)cc1 (stereo not drawn) | 100 µg/mL (≈ 227 µM) | > 10 | 1.57 µg/mL (≈ 3.57 µM) | inhibition [9]: Active; inhibition (percent reduction in intracellular colony forming units) [5]: >90%; Activity [6]: Active |

| Structure (SMILES) | IC50 [1] | selectivity ratio [2] | MIC [3] | also measured |
| --- | --- | --- | --- | --- |
| CN(C)CCOc1ccc(C(c2cccs2)c2ccccc2F)cc1 (stereo not drawn) | – | – | 17.8 µg/mL (≈ 50.1 µM) | – |
| NNC(=O)c1ccncc1 [ISONIAZID] | – | – | – | inhibition (INH) [7]: 93%; inhibition [9]: Active; inhibition [5]: Active; inhibition (INH) [8]: 84% |
| CC(C)N(CCOc1ccc(C(c2cccs2)c2ccccc2F)cc1)C(C)C (stereo not drawn) | – | – | 10.3 µg/mL (≈ 25 µM) | – |
| COc1ccc(C(c2ccc(OCCN(C(C)C)C(C)C)cc2)c2cccs2)cc1 (stereo not drawn) | 100 µg/mL (≈ 236 µM) | > 10 | 1.33 µg/mL (≈ 3.14 µM) | inhibition (INH) [7]: 96%; inhibition [9]: Active; inhibition (percent reduction in intracellular colony forming units) [5]: >90%; MRT [10]: 18 h; fraction unbound [11]: 0.4; inhibition (INH) [12]: 100%; half-life [13]: 540 min; survival at 100 mg/kg [6]: 42%; MST [14]: 7 days; fold change (FC) [15]: 15; Activity [16]: Active; Activity [17]: 2.2 ×10⁷ CFU; CFU [18]: 0; bioavailability [19]: 45%; CFU [20]: 1200; inhibition (INH) [8]: 81%; MIC [21]: 3.12 µM (≈ 1.32 µg/mL); inhibition in vivo at 100 mg/kg [22]: 75% |
| NC(=O)c1cnccn1 [PYRAZINAMIDE] | – | – | – | inhibition [5]: Active; Activity [23]: 1.9 ×10⁷ CFU |
| CN(C)CCOc1ccc(C(c2cccc(F)c2)c2cccs2)cc1 (stereo not drawn) | – | – | 17.8 µg/mL (≈ 50.1 µM) | – |
| c1ccc(C(c2ccc(OCCN3CCOCC3)cc2)c2cccs2)cc1 (stereo not drawn) | – | – | 25 µg/mL (≈ 65.8 µM) | – |
| COc1ccccc1C(c1ccc(OCCN2CCCCC2)cc1)c1cccs1 (stereo not drawn) | 9.2 µg/mL (≈ 22.6 µM) | < 10 | 1.28 µg/mL (≈ 3.14 µM) | – |
| c1ccc(C(c2ccc(OCCN3CCCCC3)cc2)c2cccs2)cc1 (stereo not drawn) | – | – | 6.23 µg/mL (≈ 16.5 µM) | – |
| Fc1ccccc1C(c1ccc(OCCN2CCOCC2)cc1)c1cccs1 (stereo not drawn) | – | – | 19.9 µg/mL (≈ 50.1 µM) | – |
| Fc1ccccc1C(c1ccc(OCCN2CCCCC2)cc1)c1cccs1 (stereo not drawn) | 3.9 µg/mL (≈ 9.86 µM) | < 10 | 1.24 µg/mL (≈ 3.13 µM) | – |
| c1ccc(C(c2ccc(OCCN3CCCCCC3)cc2)c2cccs2)cc1 (stereo not drawn) | 13 µg/mL (≈ 33.2 µM) | < 10 | 3.1 µg/mL (≈ 7.92 µM) | – |
| Clc1cccc(C(c2ccc(OCCN3CCCCC3)cc2)c2cccs2)c1 (stereo not drawn) | 8.7 µg/mL (≈ 21.1 µM) | < 10 | 1.29 µg/mL (≈ 3.13 µM) | – |
| CO[C@H]1/C=C/O[C@@]2(C)Oc3c(C)c(O)c4c(O)c(c(/C=N/N5CCN(C)CC5)c(O)c4c3C2=O)NC(=O)/C(C)=C\C=C\[C@H](C)[C@H](O)[C@@H](C)[C@@H](O)[C@@H](C)[C@H](OC(C)=O)[C@@H]1C [RIFAMPIN] | – | – | – | inhibition [5]: Active; CFU [24]: 2000 |
| COc1ccccc1C(c1ccc(OCCN2CCCC2)cc1)c1cccs1 (stereo not drawn) | – | – | 25 µg/mL (≈ 63.5 µM) | – |
| CCN(CC)CCOc1ccc(C(c2cccc(F)c2)c2cccs2)cc1 (stereo not drawn) | 5.8 µg/mL (≈ 15.1 µM) | < 10 | 2.4 µg/mL (≈ 6.26 µM) | – |
| COc1ccccc1C(c1ccc(OCCN2CCOCC2)cc1)c1cccs1 (stereo not drawn) | – | – | 10.2 µg/mL (≈ 25 µM) | – |
| CCN(CC)CCOc1ccc(C(c2cccs2)c2ccccc2F)cc1 (stereo not drawn) | – | – | 4.8 µg/mL (≈ 12.5 µM) | – |
